Test results as given in US11931431B2, “PSMA-targeted radiopharmaceutical for diagnosing and treating prostate cancer” (FUTURECHEM CO., LTD, priority 2018, dated 2024).

Columns and labels:
PSMA^+ PC-3 PIP tumors = test: MicroPET/CT imaging of mice transplanted with prostate cancer cell lines; type: in vivo, nude mouse
Procedure: A tumor model was prepared by subcutaneously injecting PSMA^+ PC-3 PIP cells (a human prostate cancer cell line) to the right side of the nude mouse hind leg. Each of the ^68Ga-labeled compounds [^68Ga]1e, [^68Ga]1g, [^68Ga]1h and [^68Ga]1k was intravenously injected with 5.5 to 6.5 MBq (148-175 μCi/200 μL), and PET/CT images were obtained using small animal INVEON PET/CT (Siemens medical solutions, Knoxville, USA) for 60 minutes. After 150 minutes, 270 minutes, and 390 minutes, PET/CT images were also obtained for 30 minutes. The obtained PET/CT image results were quantitatively analyzed using Inveon™ Research Workplace (IRW).
FIGS. 1, 2, 3, and 4 are graphs showing the quantitative analysis results of MicorPET/CT images for [^68Ga]1e, [^68Ga]1g, [^68Ga]1h, and [^68Ga]1k in % injected dose (ID)/g, and summarized in Tables 3, 4, 5, and 6, respectively.

[1] = Measurement of lipophilicity (log P), n-octanol/PBS; type: physicochemical; details: mean of 3
Procedure: Each of the [^68Ga]1 compounds (1˜2 mci) synthesized in Example 14 was transferred into a vial, and the solvent was removed, to which 1 mL of n-octanol and 1 mL of PBS were added, and the lid was well closed, followed by mixing with a vortex for 1 minute. After the layers were separated, 0.1 mL was taken from each layer and the radiation dose was measured. The radiation dose was measured by repeating 3 times, and the mean value was obtained.

O=C(O)CCC(NC(=O)NC(CCCCN(CC(=O)O)C(=O)COCCOCCNC(=O)C(CCCCNC(=O)CCCc1ccc(I)cc1)NC(=O)CN1CCN2CCN3CCN(CC1)CC(=O)[O][68Ga]([O]C(=O)C2)[O]C(=O)C3)C(=O)O)C(=O)O (centres unmarked) [[^68Ga]1h]
intake of mouse organ: Bladder (PSMA^+ PC-3 PIP tumors; 10 min after injection): 2.12 ± 0.39 % ID/g | intake of mouse organ: Heart (PSMA^+ PC-3 PIP tumors; 10 min after injection): 24.69 ± 0.20 % ID/g | intake of mouse organ: Kidney (PSMA^+ PC-3 PIP tumors; 10 min after injection): 13.26 ± 2.36 % ID/g | intake of mouse organ: Liver (PSMA^+ PC-3 PIP tumors; 10 min after injection): 14.96 ± 0.03 % ID/g | intake of mouse organ: Muscle (PSMA^+ PC-3 PIP tumors; 10 min after injection): 2.24 ± 0.15 % ID/g | intake of mouse organ: Tumor (PIP) (PSMA^+ PC-3 PIP tumors; 10 min after injection): 1.94 ± 0.35 % ID/g | intake of mouse organ: Bladder (PSMA^+ PC-3 PIP tumors; 20 min after injection): 2.91 ± 0.69 % ID/g | intake of mouse organ: Heart (PSMA^+ PC-3 PIP tumors; 20 min after injection): 21.30 ± 0.11 % ID/g | intake of mouse organ: Kidney (PSMA^+ PC-3 PIP tumors; 20 min after injection): 12.56 ± 0.86 % ID/g | intake of mouse organ: Liver (PSMA^+ PC-3 PIP tumors; 20 min after injection): 12.71 ± 0.03 % ID/g | intake of mouse organ: Muscle (PSMA^+ PC-3 PIP tumors; 20 min after injection): 2.97 ± 0.35 % ID/g | intake of mouse organ: Tumor (PIP) (PSMA^+ PC-3 PIP tumors; 20 min after injection): 3.74 ± 0.97 % ID/g | intake of mouse organ: Bladder (PSMA^+ PC-3 PIP tumors; 30 min after injection): 3.14 ± 0.51 % ID/g | intake of mouse organ: Heart (PSMA^+ PC-3 PIP tumors; 30 min after injection): 17.38 ± 0.04 % ID/g | intake of mouse organ: Kidney (PSMA^+ PC-3 PIP tumors; 30 min after injection): 12.61 ± 0.71 % ID/g | intake of mouse organ: Liver (PSMA^+ PC-3 PIP tumors; 30 min after injection): 10.37 ± 0.12 % ID/g | intake of mouse organ: Muscle (PSMA^+ PC-3 PIP tumors; 30 min after injection): 2.98 ± 0.34 % ID/g | intake of mouse organ: Tumor (PIP) (PSMA^+ PC-3 PIP tumors; 30 min after injection): 5.00 ± 1.41 % ID/g | intake of mouse organ: Bladder (PSMA^+ PC-3 PIP tumors; 40 min after injection): 4.52 ± 0.97 % ID/g | intake of mouse organ: Heart (PSMA^+ PC-3 PIP tumors; 40 min after injection): 15.25 ± 0.15 % ID/g | intake of mouse organ: Kidney (PSMA^+ PC-3 PIP tumors; 40 min after injection): 13.51 ± 0.46 % ID/g | intake of mouse organ: Liver (PSMA^+ PC-3 PIP tumors; 40 min after injection): 8.86 ± 0.35 % ID/g | intake of mouse organ: Muscle (PSMA^+ PC-3 PIP tumors; 40 min after injection): 3.28 ± 0.23 % ID/g | intake of mouse organ: Tumor (PIP) (PSMA^+ PC-3 PIP tumors; 40 min after injection): 6.22 ± 1.75 % ID/g | intake of mouse organ: Bladder (PSMA^+ PC-3 PIP tumors; 50 min after injection): 8.26 ± 4.41 % ID/g | intake of mouse organ: Heart (PSMA^+ PC-3 PIP tumors; 50 min after injection): 13.52 ± 0.55 % ID/g | intake of mouse organ: Kidney (PSMA^+ PC-3 PIP tumors; 50 min after injection): 13.44 ± 0.71 % ID/g | intake of mouse organ: Liver (PSMA^+ PC-3 PIP tumors; 50 min after injection): 7.83 ± 0.45 % ID/g | intake of mouse organ: Muscle (PSMA^+ PC-3 PIP tumors; 50 min after injection): 3.25 ± 0.36 % ID/g | intake of mouse organ: Tumor (PIP) (PSMA^+ PC-3 PIP tumors; 50 min after injection): 7.12 ± 2.07 % ID/g | intake of mouse organ: Bladder (PSMA^+ PC-3 PIP tumors; 60 min after injection): 12.62 ± 5.31 % ID/g | intake of mouse organ: Heart (PSMA^+ PC-3 PIP tumors; 60 min after injection): 12.14 ± 0.91 % ID/g | intake of mouse organ: Kidney (PSMA^+ PC-3 PIP tumors; 60 min after injection): 13.60 ± 1.72 % ID/g | intake of mouse organ: Liver (PSMA^+ PC-3 PIP tumors; 60 min after injection): 7.19 ± 0.49 % ID/g | intake of mouse organ: Muscle (PSMA^+ PC-3 PIP tumors; 60 min after injection): 3.14 ± 0.20 % ID/g | intake of mouse organ: Tumor (PIP) (PSMA^+ PC-3 PIP tumors; 60 min after injection): 7.90 ± 2.46 % ID/g | intake of mouse organ: Bladder (PSMA^+ PC-3 PIP tumors; 150 min after injection): 19.45 ± 12.23 % ID/g | intake of mouse organ: Heart (PSMA^+ PC-3 PIP tumors; 150 min after injection): 5.55 ± 2.19 % ID/g | intake of mouse organ: Kidney (PSMA^+ PC-3 PIP tumors; 150 min after injection): 6.40 ± 1.41 % ID/g | intake of mouse organ: Liver (PSMA^+ PC-3 PIP tumors; 150 min after injection): 2.80 ± 0.99 % ID/g | intake of mouse organ: Muscle (PSMA^+ PC-3 PIP tumors; 150 min after injection): 1.70 ± 0.57 % ID/g | intake of mouse organ: Tumor (PIP) (PSMA^+ PC-3 PIP tumors; 150 min after injection): 9.90 ± 4.53 % ID/g | intake of mouse organ: Bladder (PSMA^+ PC-3 PIP tumors; 270 min after injection): 15.90 ± 4.53 % ID/g | intake of mouse organ: Heart (PSMA^+ PC-3 PIP tumors; 270 min after injection): 5.75 ± 0.21 % ID/g | intake of mouse organ: Kidney (PSMA^+ PC-3 PIP tumors; 270 min after injection): 7.45 ± 1.63 % ID/g | intake of mouse organ: Liver (PSMA^+ PC-3 PIP tumors; 270 min after injection): 3.00 ± 0.28 % ID/g | intake of mouse organ: Muscle (PSMA^+ PC-3 PIP tumors; 270 min after injection): 1.70 ± 0.14 % ID/g | intake of mouse organ: Tumor (PIP) (PSMA^+ PC-3 PIP tumors; 270 min after injection): 14.20 ± 0.00 % ID/g | intake of mouse organ: Bladder (PSMA^+ PC-3 PIP tumors; 390 min after injection): 22.80 ± 9.90 % ID/g | intake of mouse organ: Heart (PSMA^+ PC-3 PIP tumors; 390 min after injection): 3.90 ± 0.42 % ID/g | intake of mouse organ: Kidney (PSMA^+ PC-3 PIP tumors; 390 min after injection): 5.85 ± 0.92 % ID/g | intake of mouse organ: Liver (PSMA^+ PC-3 PIP tumors; 390 min after injection): 2.35 ± 0.07 % ID/g | intake of mouse organ: Muscle (PSMA^+ PC-3 PIP tumors; 390 min after injection): 1.30 ± 0.14 % ID/g | intake of mouse organ: Tumor (PIP) (PSMA^+ PC-3 PIP tumors; 390 min after injection): 16.75±0.92 % ID/g | excretion, in words (PSMA^+ PC-3 PIP tumors; MicroPET/CT): rapidly excreted out of the body | residence time in the blood, in words (PSMA^+ PC-3 PIP tumors; MicroPET/CT): residence time in the blood was increased | tumor intake over time, in words (PSMA^+ PC-3 PIP tumors; MicroPET/CT): tumor intake continued to increase after 390 minutes | logP [1]: −1.89

O=C(O)CC[C@H](NC(=O)N[C@@H](CCC(=O)N(CCOCCOCCNC(=O)CN1CCN2CCN3CCN(CC1)CC(=O)[O][68Ga]([O]C(=O)C2)[O]C(=O)C3)CC(=O)O)C(=O)O)C(=O)O [[^68Ga]1n]
logP [1]: −3.06
